Experimental data from article PMC7083837 (Nature Communications, 2020).
“And” between values parts separate entries of the source, which are not always exact repeats. Equal entries are not always repeated.

How the values were obtained:
[1] = test system: extracellular 5-HT levels in rat hippocampus; experiment: Microdialysis in ventral hippocampus of freely moving rats; type: in vivo; parameters: extracellular 5-HT level / AUC: unit not given here;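 for extracellular 5-HT level: percent of mean basal level in three fractions before perfusion start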
SERT F556R = target: T1, SERT F556R (Homo sapiens, UniProt P31645, F556R); experiment: [3H]5-HT uptake in intact COS-7 cells; type: cell-based; settings: for 5-HT uptake inhibition by Lu AF60097: Fig 5A
T1 construct: expressed in transfected cells; host or cells: COS-7
T1 sequence (P31645 whole entry F556R): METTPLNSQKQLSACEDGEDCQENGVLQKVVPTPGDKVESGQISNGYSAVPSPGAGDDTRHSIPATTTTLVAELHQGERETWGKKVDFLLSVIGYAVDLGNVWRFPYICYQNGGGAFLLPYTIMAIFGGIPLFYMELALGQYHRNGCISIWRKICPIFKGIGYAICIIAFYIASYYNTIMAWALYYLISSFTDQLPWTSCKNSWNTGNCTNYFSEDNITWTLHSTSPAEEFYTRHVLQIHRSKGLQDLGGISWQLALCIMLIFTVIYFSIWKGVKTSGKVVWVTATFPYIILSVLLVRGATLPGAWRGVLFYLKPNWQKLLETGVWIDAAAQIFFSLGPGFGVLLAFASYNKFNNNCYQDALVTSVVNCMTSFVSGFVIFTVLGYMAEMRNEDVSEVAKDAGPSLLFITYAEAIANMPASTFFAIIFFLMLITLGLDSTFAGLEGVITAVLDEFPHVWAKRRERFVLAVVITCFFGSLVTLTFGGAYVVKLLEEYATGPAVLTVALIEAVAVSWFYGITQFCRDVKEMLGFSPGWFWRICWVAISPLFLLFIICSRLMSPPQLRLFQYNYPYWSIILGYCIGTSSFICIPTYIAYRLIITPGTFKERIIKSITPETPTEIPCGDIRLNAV

SERT E494Q = target: T2, SERT E494Q (Homo sapiens, UniProt P31645, E494Q); experiment: [3H]IMI dissociation rate assay; type: binding
T2 construct: expressed in transfected cells; host or cells: COS-7
T2 sequence (P31645 whole entry E494Q): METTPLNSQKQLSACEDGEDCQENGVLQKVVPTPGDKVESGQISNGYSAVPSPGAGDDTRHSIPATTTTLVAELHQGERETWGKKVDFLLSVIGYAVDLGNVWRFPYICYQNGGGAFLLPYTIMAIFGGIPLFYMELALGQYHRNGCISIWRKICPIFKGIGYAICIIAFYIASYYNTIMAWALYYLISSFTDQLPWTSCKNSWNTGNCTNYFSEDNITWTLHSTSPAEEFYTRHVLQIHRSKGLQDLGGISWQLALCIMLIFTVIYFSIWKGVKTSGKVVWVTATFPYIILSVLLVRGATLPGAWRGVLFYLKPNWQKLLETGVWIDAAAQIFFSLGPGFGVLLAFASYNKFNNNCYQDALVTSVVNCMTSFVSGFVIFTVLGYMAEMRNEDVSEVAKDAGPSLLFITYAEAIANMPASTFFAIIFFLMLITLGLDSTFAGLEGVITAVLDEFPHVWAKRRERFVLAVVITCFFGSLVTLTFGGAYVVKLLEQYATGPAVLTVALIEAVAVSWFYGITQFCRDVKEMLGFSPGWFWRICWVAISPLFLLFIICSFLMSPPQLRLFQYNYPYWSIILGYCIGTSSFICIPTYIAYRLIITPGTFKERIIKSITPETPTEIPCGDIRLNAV

SERT WT [2] = target: T3, SERT WT (Homo sapiens, UniProt P31645); experiment: [3H]S-CIT competition (equilibrium) binding on COS-7 membranes
T3 construct: expressed in transfected cells; host or cells: COS-7
T3 sequence (P31645 whole entry): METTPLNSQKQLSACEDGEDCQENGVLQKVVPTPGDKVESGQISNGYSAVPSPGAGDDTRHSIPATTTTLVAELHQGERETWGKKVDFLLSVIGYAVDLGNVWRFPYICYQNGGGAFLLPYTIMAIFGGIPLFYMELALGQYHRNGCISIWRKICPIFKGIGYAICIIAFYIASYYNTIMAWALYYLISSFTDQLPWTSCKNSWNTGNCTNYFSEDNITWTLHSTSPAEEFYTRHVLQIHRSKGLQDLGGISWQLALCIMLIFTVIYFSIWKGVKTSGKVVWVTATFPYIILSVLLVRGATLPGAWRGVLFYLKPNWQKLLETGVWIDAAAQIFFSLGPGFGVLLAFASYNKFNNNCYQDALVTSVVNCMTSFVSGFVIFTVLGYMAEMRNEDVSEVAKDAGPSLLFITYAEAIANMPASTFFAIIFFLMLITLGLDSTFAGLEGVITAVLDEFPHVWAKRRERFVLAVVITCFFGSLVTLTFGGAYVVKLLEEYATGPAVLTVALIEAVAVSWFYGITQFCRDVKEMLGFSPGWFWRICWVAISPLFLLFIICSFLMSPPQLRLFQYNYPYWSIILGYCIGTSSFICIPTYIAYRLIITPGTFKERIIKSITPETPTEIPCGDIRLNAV

SERT WT [3] = target: T3, SERT WT; experiment: [3H]IMI competitive binding on COS-7 membranes
Description: [^3H]S-CIT and [^3H]IMI competitive binding experiments were performed on membrane preparations of COS-7 cells transiently transfected with SERT WT. Membrane aliquots were mixed with membrane buffer containing 5–10 nM of either [^3H]S-CIT or [^3H]IMI and Lu AF60097 in the indicated concentrations to a final volume of 300 µL. The binding experiments were incubated 1 h at room temperature and subsequently filtered, washed and counted as described under ‘[^3H]IMI and [^3H]S-CIT dissociation rate assay’. Non-specific binding was determined by adding 5 µM paroxetine.

SERT WT [4] = target: T3, SERT WT; experiment: [3H]5-HT uptake in intact COS-7 cells; type: cell-based; parameters: 5-HT uptake: unit not given here; settings: for 5-HT uptake: Fig 5B

5-HT uptake inhibition by Lu AF60097 (SERT F556R; [Lu AF60097] -5.5): 0.1354
5-HT uptake inhibition by Lu AF60097 (SERT F556R; [Lu AF60097] -6): 0.2671
5-HT uptake inhibition by Lu AF60097 (SERT F556R; [Lu AF60097] -6.5): 0.5785
5-HT uptake inhibition by Lu AF60097 (SERT F556R; [Lu AF60097] -7): 0.7467
5-HT uptake inhibition by Lu AF60097 (SERT F556R; [Lu AF60097] -7.5): 0.9156
5-HT uptake inhibition by Lu AF60097 (SERT F556R; [Lu AF60097] -8): 0.9992
5-HT uptake inhibition by Lu AF60097 (SERT F556R; [Lu AF60097] -9): 0.9608
5-HT uptake inhibition by Lu AF60097 (SERT F556R; [Lu AF60097] -10): 1.013
Ki (SERT F556R; SERT F556R): 260 nM
ΔAP (mut/WT), change in allosteric potency relative to SERT WT (SERT E494Q; E494Q, [^3H]IMI dissociation): 5
IC50 (SERT E494Q; SERT E494Q, read-out: Allosteric potency inhibition of [^3H]IMI dissociation (IC50)): 170 nM
IC50 (SERT WT [2]; COS-7 membranes, SERT WT, read-out: Inhibition of [^3H]S-CIT binding (IC50)): 270 nM
Displacement of [3H]S-CIT binding (normalized bound, Fig S6) (SERT WT [2]; log[Lu AF60097] -4.9586): 0.02221 and 0.02599
Displacement of [3H]S-CIT binding (normalized bound, Fig S6) (SERT WT [2]; log[Lu AF60097] -6.4638): 0.4362 and 0.4819 and 0.2888
Displacement of [3H]S-CIT binding (normalized bound, Fig S6) (SERT WT [2]; log[Lu AF60097] -6.7648): 0.6201 and 0.6384 and 0.4362
Displacement of [3H]S-CIT binding (normalized bound, Fig S6) (SERT WT [2]; log[Lu AF60097] -7.0658): 0.7487 and 0.8379 and 0.6201
Displacement of [3H]S-CIT binding (normalized bound, Fig S6) (SERT WT [2]; log[Lu AF60097] -7.3668): 0.8096 and 1.0297 and 0.7487
Displacement of [3H]S-CIT binding (normalized bound, Fig S6) (SERT WT [2]; log[Lu AF60097] -7.6679): 0.9347 and 1.009 and 0.8096
Displacement of [3H]S-CIT binding (normalized bound, Fig S6) (SERT WT [2]; log[Lu AF60097] -7.8213): 0.9058
Displacement of [3H]S-CIT binding (normalized bound, Fig S6) (SERT WT [2]; log[Lu AF60097] -8.2985): 0.9777 and 0.9058
Displacement of [3H]S-CIT binding (normalized bound, Fig S6) (SERT WT [2]; log[Lu AF60097] -9): 0.999 and 0.9777
Displacement of [^3H]IMI in binding experiment (SERT WT [3]; equilibrium binding, SERT WT membranes): not displaced
Displacement of [3H]IMI binding (normalized bound, Fig S6) (SERT WT [3]; log[Lu AF60097] -4.9586): 0.8037 and 0.8081 and 0.979
Displacement of [3H]IMI binding (normalized bound, Fig S6) (SERT WT [3]; log[Lu AF60097] -5.2596): 0.9221 and 1.029 and 1.04
Displacement of [3H]IMI binding (normalized bound, Fig S6) (SERT WT [3]; log[Lu AF60097] -5.5607): 1.05 and 0.9989 and 1.0302
Displacement of [3H]IMI binding (normalized bound, Fig S6) (SERT WT [3]; log[Lu AF60097] -5.8617): 1.118 and 1.161 and 1.01
Displacement of [3H]IMI binding (normalized bound, Fig S6) (SERT WT [3]; log[Lu AF60097] -6.1627): 1.173 and 1.156 and 0.9563
Displacement of [3H]IMI binding (normalized bound, Fig S6) (SERT WT [3]; log[Lu AF60097] -6.4638): 1.154 and 1.04 and 1.011
Displacement of [3H]IMI binding (normalized bound, Fig S6) (SERT WT [3]; log[Lu AF60097] -6.7648): 1.061 and 1.088 and 0.8905
Displacement of [3H]IMI binding (normalized bound, Fig S6) (SERT WT [3]; log[Lu AF60097] -7.0658): 1.098 and 0.9993 and 0.8339
Displacement of [3H]IMI binding (normalized bound, Fig S6) (SERT WT [3]; log[Lu AF60097] -7.3668): 1.049 and 0.9798
Displacement of [3H]IMI binding (normalized bound, Fig S6) (SERT WT [3]; log[Lu AF60097] -7.6679): 1.052 and 1.0159
Vmax 5-HT (SERT WT [4]; 10 nM Lu AF60097): 1232 ± 48 fmol/min
Vmax 5-HT (SERT WT [4]; 20 nM Lu AF60097): 1279 ± 64 fmol/min
Vmax 5-HT (SERT WT [4]; 40 nM Lu AF60097): 1007 ± 58 fmol/min
Vmax 5-HT (SERT WT [4]; 80 nM Lu AF60097): 1361 ± 78 fmol/min
Vmax 5-HT (SERT WT [4]; 160 nM Lu AF60097): 1235 ± 34 fmol/min
Vmax 5-HT (SERT WT [4]; 320 nM Lu AF60097): 973 ± 25 fmol/min
Vmax 5-HT (SERT WT [4]; 640 nM Lu AF60097): 971 ± 21 fmol/min
inhibition at 0.027 µM (SERT WT [4]; COS-7, read-out: Decrease (inhibition) of [^3H]5-HT uptake relative to control, IMI 4 nM, Lu AF60097 27 nM, alone or together): 5 ± 1.8%
5-HT uptake (SERT WT [4]; 0.1474 µM 5HT, 640 nM AF60097): 82.89 and 76.41 and 75.6 and 73.71
Compound: NC(=O)c1ccc2c(c1)CO[C@@]2(CCCN1CCC(c2ccc3ccc(=O)[nH]c3c2)CC1)c1ccc(F)cc1 [Lu AF60097, (S)-1-(4-fluorophenyl)-1-(3-(4-(2-oxo-1,2-dihydroquinolin-7-yl)piperidin-1-yl)propyl)-1,3-dihydroisobenzofuran-5-carboxamide]
Maximum extracellular 5-HT level, % of basal level ([1]; 1 µl (250 nM) injected in ventral hippocampus): 602 ± 156%
Hippocampal 5-HT level above saline ([1]; 1 µl of 250 nM injected locally, after 2 h): about 6 fold
extracellular 5-HT level ([1]; Fig 6A, time 0): 99.15 and 92.9 and 84.7 and 127.51 and 96.31 and 90.57
extracellular 5-HT level ([1]; Fig 6A, time -20): 99.13 and 103.53 and 109.41 and 104.22 and 103.69 and 101.06
extracellular 5-HT level ([1]; Fig 6A, time -40, single animals): 101.72 and 103.57 and 105.89 and 68.26 and 100 and 108.37
AUC ([1]; Fig 6B Inset, single animals): 160 and 33 and 22 and 96 and 107 and 114 and 155 and 78 and 140 and 79 and 75 and 81 and 29 and 143 and 77
extracellular 5-HT level ([1]; Fig 6B, Time -40, single animals): 98.41 and 131.26 and 120.63 and 87.45 and 121.36 and 138.4 and 108.61 and 82.38 and 85.26 and 67.86 and 55.86 and 116.12
5-HT uptake (SERT WT [4]; 0.1474 µM 5HT, 10 nM AF60097): 289.4 and 268.7 and 257.4 and 246.6 and 314.6
5-HT uptake (SERT WT [4]; 0.1474 µM 5HT, 20 nM AF60097): 295.7 and 305.6 and 246.2 and 292.1 and 271.4
5-HT uptake (SERT WT [4]; 0.1474 µM 5HT, 80 nM AF60097): 149 and 175.1 and 138.2 and 177.3 and 172.8
5-HT uptake (SERT WT [4]; 0.1474 µM 5HT, 160 nM AF60097): 193.5 and 184.1 and 172.4 and 177.3 and 155.3
5-HT uptake (SERT WT [4]; 0.1474 µM 5HT, 320 nM AF60097): 124.2 and 120.2 and 98.55 and 160.4 and 125
5-HT uptake (SERT WT [4]; 0.2395 µM 5HT, 10 nM AF60097): 401.9 and 351.5 and 378.9 and 356.9 and 437.9
